Measured values: patent US20220279826A1, “OFF-FLAVOR SUPPRESSING AGENT” (AJINOMOTO CO., INC., priority 2019, published 2022)

How the values were obtained:
[1] = Sensory evaluation in Japanese noodle soup base solution with potassium chloride (0.1 g) (Experimental Example 4); conditions: for off-taste suppressing effect: Japanese noodle soup base solution, potassium chloride 0.1 g; for intensity of off-tastes (bitter taste, metallic taste, harsh taste, astringent taste) derived from potassium chloride: base solution of Table 18
Experimental: Potassium chloride (0.1 g) was added to a commercially available Japanese noodle soup base (manufactured by Yamaki Co., Ltd.) (11.1 g), and dissolved by adding hot water ([…]) to prepare a base solution.
Each compound shown in the following Table 18 was added to the base solution prepared above so as to achieve the concentration (addition concentration) shown in the following Table 18 to prepare each evaluation sample.
Based on the following evaluation criteria, a panel of two experts determined by consensus the intensity of off-tastes (bitter taste, metallic taste, harsh taste, astringent taste) derived from potassium chloride in each evaluation sample, by reference to each potassium chloride aqueous solution adjusted to 0.1 wt % or 0.05 wt %.

[2] = Sensory evaluation in BCAA sweetness aqueous solution (Experimental Example 6); set-up: key to off-taste suppressing effect: ±: no change from negative control; −: slightly suppressed compared to negative control; −−: suppressed compared to negative control (same level of intensity as BCAA sweetness aqueous solution in which total concentration of leucine, isoleucine, and valine (weight ratio=2:1:1) exceeds 0.8 wt % and is not more than 0.9 wt %); −−−: considerably suppressed compared to negative control (same level of intensity as BCAA sweetness aqueous solution in which total concentration of leucine, isoleucine, and valine (weight ratio=2:1:1) is not more than 0.8 wt %); conditions: for intensity of off-tastes (bitter taste, harsh taste) derived from amino acid (branched chain amino acid): summary of Table 20
Experimental: Each compound shown in the following Table 20 was added to an aqueous solution prepared by dissolving leucine (0.50 parts by weight), isoleucine (0.25 parts by weight), valine (0.25 parts by weight), and granulated sugar (4 parts by weight) in ion exchange water (95 parts by weight) (hereinafter at times referred to as BCAA sweetness aqueous solution) so as to achieve the concentration (addition concentration) shown in the following Table 20 to prepare each evaluation sample.
Based on the following evaluation criteria, a panel of four experts determined by consensus the intensity of off-tastes (bitter taste, harsh taste) derived from amino acid in each evaluation sample, by comparison with a BCAA sweetness aqueous solution without addition of any compound (negative control).

[3] = addition concentration 1000 weight ppb (1000 weight ppm with respect to potassium chloride)
[4] = addition concentration 2000 weight ppb (2000 weight ppm with respect to potassium chloride)
[5] = addition concentration 10 weight ppb (1 weight ppm with respect to amino acid)
[6] = addition concentration 50 weight ppb (5 weight ppm with respect to amino acid)
[7] = addition concentration 100 weight ppb (10 weight ppm with respect to amino acid)
[8] = addition concentration 1 weight ppb (0.1 weight ppm with respect to amino acid)

Row | Structure (SMILES) | off-taste suppressing effect [1, 3] | off-taste suppressing effect [1, 4] | intensity of off-tastes (bitter taste, metallic taste, harsh taste, astringent taste) derived from potassium chloride [1] | off-taste suppressing effect [2, 5] | off-taste suppressing effect [2, 6] | off-taste suppressing effect [2, 7] | off-taste suppressing effect ([2]; addition concentration 200 weight ppb (20 weight ppm with respect to amino acid)) | intensity of off-tastes (bitter taste, harsh taste) derived from amino acid (branched chain amino acid) [2] | off-taste suppressing effect [2, 8] | off-taste suppressing effect ([2]; addition concentration 500 weight ppb (50 weight ppm with respect to amino acid)) | off-taste suppressing effect ([2]; addition concentration 1000 weight ppb (100 weight ppm with respect to amino acid)) | off-taste suppressing effect ([2]; addition concentration 2000 weight ppb (200 weight ppm with respect to amino acid))
1 | CC(=O)c1ccc(C)o1 [2-acetyl-5-methylfuran] | + (intensity of the same level as potassium chloride aqueous solution with potassium chloride concentration of not less than 0.05 wt % and less than 0.1 wt %) | ++ (intensity of the same level as potassium chloride aqueous solution with potassium chloride concentration of less than 0.05 wt %) | decreased |  |  |  |  |  |  |  |  | 
2 | CC(=O)c1ccco1 [2-acetylfuran] |  |  |  | − | −− (suppressed compared to negative control (same level of intensity as BCAA sweetness aqueous solution in which total concentration of leucine, isoleucine, and valine (weight ratio=2:1:1) exceeds 0.8 wt % and is not more than 0.9 wt %)) | −− (suppressed compared to negative control (same level of intensity as BCAA sweetness aqueous solution in which total concentration of leucine, isoleucine, and valine (weight ratio=2:1:1) exceeds 0.8 wt % and is not more than 0.9 wt %)) | −− (suppressed compared to negative control (same level of intensity as BCAA sweetness aqueous solution in which total concentration of leucine, isoleucine, and valine (weight ratio=2:1:1) exceeds 0.8 wt % and is not more than 0.9 wt %)) | suppressed |  |  |  | 
3 | CC1=C(O)C(=O)CC1 [cyclotene] |  |  |  | −− (suppressed compared to negative control (same level of intensity as BCAA sweetness aqueous solution in which total concentration of leucine, isoleucine, and valine (weight ratio=2:1:1) exceeds 0.8 wt % and is not more than 0.9 wt %)) | −− (suppressed compared to negative control (same level of intensity as BCAA sweetness aqueous solution in which total concentration of leucine, isoleucine, and valine (weight ratio=2:1:1) exceeds 0.8 wt % and is not more than 0.9 wt %)) | −− (suppressed compared to negative control (same level of intensity as BCAA sweetness aqueous solution in which total concentration of leucine, isoleucine, and valine (weight ratio=2:1:1) exceeds 0.8 wt % and is not more than 0.9 wt %)) |  | suppressed | −− (suppressed compared to negative control (same level of intensity as BCAA sweetness aqueous solution in which total concentration of leucine, isoleucine, and valine (weight ratio=2:1:1) exceeds 0.8 wt % and is not more than 0.9 wt %)) |  |  | 
4 | O=Cc1ccco1 [furfural, Furfural] |  |  |  | −− (suppressed compared to negative control (same level of intensity as BCAA sweetness aqueous solution in which total concentration of leucine, isoleucine, and valine (weight ratio=2:1:1) exceeds 0.8 wt % and is not more than 0.9 wt %)) | −− (suppressed compared to negative control (same level of intensity as BCAA sweetness aqueous solution in which total concentration of leucine, isoleucine, and valine (weight ratio=2:1:1) exceeds 0.8 wt % and is not more than 0.9 wt %)) | −− (suppressed compared to negative control (same level of intensity as BCAA sweetness aqueous solution in which total concentration of leucine, isoleucine, and valine (weight ratio=2:1:1) exceeds 0.8 wt % and is not more than 0.9 wt %)) |  | suppressed | − |  |  | 
5 | CCC(=O)O [propionic acid] | + (intensity of the same level as potassium chloride aqueous solution with potassium chloride concentration of not less than 0.05 wt % and less than 0.1 wt %) | ++ (intensity of the same level as potassium chloride aqueous solution with potassium chloride concentration of less than 0.05 wt %) | decreased |  |  | − |  | suppressed |  | −− (suppressed compared to negative control (same level of intensity as BCAA sweetness aqueous solution in which total concentration of leucine, isoleucine, and valine (weight ratio=2:1:1) exceeds 0.8 wt % and is not more than 0.9 wt %)) | −− (suppressed compared to negative control (same level of intensity as BCAA sweetness aqueous solution in which total concentration of leucine, isoleucine, and valine (weight ratio=2:1:1) exceeds 0.8 wt % and is not more than 0.9 wt %)) | −− (suppressed compared to negative control (same level of intensity as BCAA sweetness aqueous solution in which total concentration of leucine, isoleucine, and valine (weight ratio=2:1:1) exceeds 0.8 wt % and is not more than 0.9 wt %))
